US5929056A, “Vitamin D compounds and method of preparing these compounds” (Duphar International Research B.V., priority 1994, dated 1999)

Columns and labels:
[1] = test system: human leukemic cell line HL-60; assay: Cell differentiation in HL-60 assay (NBT reduction); format: cell-based; conditions: for concentration of optimum differentiating effect / NBT-reduction inducing capacity relative to the known 1α,25-DHCC: HL-60 cells; for concentration of optimum differentiating effect / induction of differentiation and maturation of HL-60 cells: NBT reduction; for NBT-reduction inducing capacity relative to the known 1α,25-DHCC: FIGS. 2 and 3, potency ratio versus 1α,25-DHCC; for induction of differentiation and maturation of HL-60 cells: 10^-12 to 10^-6 M
Procedure: Vitamin D compounds according to the invention are dissolved in ethanol in concentrations ranging from 10^-12 to 10^-6 M and tested for their capacity to induce cell differentiation in a HL-60 assay. In this assay, biochemical examination of the human leukemic cell line HL-60 is done, in order to establish whether cell differentiation has taken place.
Differentiation is expressed as the maturation parameter nitroblue tetrazolium (NBT) reduction. After culturing with the known 1α,25-DHCC or with vitamin D compounds of the invention, the percentage of cells containing black formazan deposits is determined. An increase in the percentage of NBT reducing cells indicates an increase in cell differentiation.

[2] = molecular target: T1, human vitamin D binding protein (DBP) (Homo sapiens, UniProt P02774); assay: Affinity to vitamin D binding protein (competition with 3H-1α,25-DHCC); conditions: DBP purified from total human serum; 10^-11 to 2.5×10^-6 M; compared to 1α,25-DHCC; FIG. 1
T1 construct: pooled Gc allotypes not specified
T1 sequence (P02774 17-474): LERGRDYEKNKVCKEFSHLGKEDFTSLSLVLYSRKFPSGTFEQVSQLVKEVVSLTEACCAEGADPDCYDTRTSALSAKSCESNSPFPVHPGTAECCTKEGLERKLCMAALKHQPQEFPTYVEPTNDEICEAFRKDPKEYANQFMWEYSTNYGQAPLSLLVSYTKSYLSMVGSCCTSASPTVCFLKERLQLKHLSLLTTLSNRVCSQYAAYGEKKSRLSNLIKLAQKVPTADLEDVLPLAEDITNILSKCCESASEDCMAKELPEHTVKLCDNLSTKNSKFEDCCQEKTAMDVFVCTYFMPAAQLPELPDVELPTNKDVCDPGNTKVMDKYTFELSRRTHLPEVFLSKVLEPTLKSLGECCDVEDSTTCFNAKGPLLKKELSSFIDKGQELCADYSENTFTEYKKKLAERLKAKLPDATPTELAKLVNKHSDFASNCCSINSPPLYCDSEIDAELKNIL
From the text: Affinity to vitamin D binding protein.
Vitamin D binding protein (DBP) is the specific carrier for vitamin D and its metabolites in blood. The biological activity of vitamin D compounds depends on their binding to DBP, because strong binding to DBP will reduce the intracellular access to the VDR. Binding to the DBP may also influence the half-life of the vitamin D derivatives in circulation. Weak binders are rapidly metabolized, which is a favourable aspect in topical application.
In the assay, DBP is incubated with ^3 H-1α,25-DHCC and 1α,25-DHCC or with several vitamin D compounds according to the invention. To this purpose, the vitamin compounds are dissolved in ethanol in concentrations ranging from 10^-11 to 2.5×10^-6 M. The percentage bound/unbound ^3 H-1α,25-DHCC is then calculated. DBP is purified from total human serum. The results are shown in the appended FIG. 1. […] [^3 H]1α,25(OH)2 D3 =^3 H-1α,25-DHCC; in the Figure .cndot.=1α,25-DHCC (known compound); .quadrature.=compound 21; Δ=compound 28; o=compound 32 and .diamond.=compound 36.

[3] = molecular target: T2, calf thymus intracellular vitamin D receptor (VDR) (Bos taurus, UniProt Q28037); assay: Affinity to intracellular vitamin D receptor (displacement of 3H-1α,25-DHCC); format: binding; conditions: 10^-13 to 10^-7 M, compared with 1α,25-dihydroxycholecalciferol
T2 sequence (Q28037 1-426): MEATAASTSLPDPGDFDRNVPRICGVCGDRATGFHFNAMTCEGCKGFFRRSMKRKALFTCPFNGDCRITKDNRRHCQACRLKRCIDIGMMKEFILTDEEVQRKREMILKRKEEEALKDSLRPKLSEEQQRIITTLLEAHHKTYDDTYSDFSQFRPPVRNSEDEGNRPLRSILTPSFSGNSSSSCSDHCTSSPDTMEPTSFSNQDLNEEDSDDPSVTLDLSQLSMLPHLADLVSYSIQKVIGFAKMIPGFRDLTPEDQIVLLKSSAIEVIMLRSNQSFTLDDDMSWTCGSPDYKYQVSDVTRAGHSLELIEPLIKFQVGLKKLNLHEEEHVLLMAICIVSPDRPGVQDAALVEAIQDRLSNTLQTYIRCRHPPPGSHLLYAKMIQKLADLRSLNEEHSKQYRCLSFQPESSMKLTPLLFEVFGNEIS
From the text: Affinity to intracellular vitamin D receptor.
In this assay, ^3 H-1α,25-dihydroxycholecalciferol (^3 H-1α,25-DHCC), which is specifically bound to the VDR, is replaced by the tested compounds. […] A high VDR-affinity is indicative for a biologically active substance. The tested compounds 21 and 28 have moderate VDR-affinities, whereas tested compound 36 has a weak VDR-affinity.

| Structure (SMILES) | concentration of optimum differentiating effect [1] | NBT-reduction inducing capacity relative to the known 1α,25-DHCC [1] | induction of differentiation and maturation of HL-60 cells [1] | binding to the DBP [2] | VDR-affinity [3] |
| --- | --- | --- | --- | --- | --- |
| C=C1/C(=C\C=C2/CCC[C@]3(C)/C(=C\CCCC(C)(C)O)CC[C@@H]23)C[C@@H](O)C[C@@H]1O [compound 21] | 10^-8 to 10^-7 M | 3-5 times | induce differentiation and maturation | rather weakly | moderate |
| C=C1/C(=C\C=C2/CCC[C@]3(C)/C(=C/CCCC(C)(C)O)CC[C@@H]23)C[C@@H](O)C[C@@H]1O [compound 28] | 10^-8 to 10^-7 M | as potent as the known 1α,25-DHCC | induce differentiation and maturation | rather weakly | moderate |
| C=C1/C(=C\C=C2/CCC[C@@]3(C)[C@H]2CC[C@@]32C[C@@H]2CCCC(C)(C)O)C[C@@H](O)C[C@@H]1O [compound 32] | 10^-8 to 10^-7 M | 3-5 times | induce differentiation and maturation | rather weakly | high |
| C=C1/C(=C\C=C2/CCC[C@@]3(C)[C@H]2CC[C@@]32C[C@H]2CCCC(C)(C)O)C[C@@H](O)C[C@@H]1O [compound 36] | 10^-8 to 10^-7 M | about 10 times | induce differentiation and maturation | rather weakly | weak |
| C=C1/C(=C\C=C2/CCC[C@]3(C)[C@@H]([C@H](C)CCCC(C)(C)O)CC[C@@H]23)C[C@@H](O)C[C@@H]1O [1α,25-DHCC, 1α,25-dihydroxycholecalciferol, reference compound] | 10^-8 to 10^-7 M | – | induce differentiation and maturation | – | – |
